Test system: HCT116 colorectal cancer cells
Experiment: Cisplatin sensitization assay (96 h MTS cell viability);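 note: compound concentration needed to lower the IC50 of Cisplatin alone by a set fold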
Assay type: cell-based
Settings: Cisplatin sensitization value
Outline: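 HCT116 cells were dosed simultaneously with compound and cisplatin as a full matrix of 2-fold serial dilutions from 10 μM top final concentration. Incubation was 96 h at 37° C., 5% CO2, followed by 1 h with MTS reagent for the viability read-out. Sensitization values were binned into +++, ++ and + categories.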

## Nc1nn2cc(F)cnc2c1C(=O)Nc1cncc(F)c1N1CCC(C(=O)N2CCN3CCC2C3)CC1 (stereo not drawn) [I-G-46, N-(4-(4-(1,4-diazabicyclo[3.2.1]octane-4-carbonyl)piperidin-1-yl)-5-fluoropyridin-3-yl)-2-amino-6-fluoropyrazolo[1,5-a]pyrimidine-3-carboxamide]
  Cisplatin Sensitization Assay: +++ (Compounds with a Cisplatin sensitization value of <0.02 μM are marked with “+++.”)

## Nc1nn2cc(F)cnc2c1C(=O)Nc1cncc(Cl)c1N1CCC(C(=O)N2CCNCC2)CC1 [I-G-48, 2-amino-N-(5-chloro-4-(4-(piperazine-1-carbonyl)piperidin-1-yl)pyridin-3-yl)-6-fluoropyrazolo[1,5-a]pyrimidine-3-carboxamide]
  Cisplatin Sensitization Assay: +++ (Compounds with a Cisplatin sensitization value of <0.02 μM are marked with “+++.”)

## Nc1nn2cc(F)cnc2c1C(=O)Nc1cncc(F)c1N1CCC(C(=O)N2CC(N3CCC3)C2)CC1 [I-G-49, N-(4-(4-([1,3′-biazetidine]-1′-carbonyl)piperidin-1-yl)-5-fluoropyridin-3-yl)-2-amino-6-fluoropyrazolo[1,5-a]pyrimidine-3-carboxamide]
  Cisplatin Sensitization Assay: +++ (Compounds with a Cisplatin sensitization value of <0.02 μM are marked with “+++.”)

## C[C@@H]1CN(C(=O)C2CCN(c3c(F)cncc3NC(=O)c3c(N)nn4cc(F)cnc34)CC2)CCN1C [I-G-50, (R)-2-amino-N-(4-(4-(3,4-dimethylpiperazine-1-carbonyl)piperidin-1-yl)-5-fluoropyridin-3-yl)-6-fluoropyrazolo[1,5-a]pyrimidine-3-carboxamide]
  Cisplatin Sensitization Assay: +++ (Compounds with a Cisplatin sensitization value of <0.02 μM are marked with “+++.”)

## Nc1nn2cc(F)cnc2c1C(=O)Nc1cncc(F)c1N1CCC(C(=O)N2CC3CNCC3C2)CC1 (stereo not drawn) [I-G-51, 2-amino-6-fluoro-N-(5-fluoro-4-(4-(octahydropyrrolo[3,4-c]pyrrole-2-carbonyl)piperidin-1-yl)pyridin-3-yl)pyrazolo[1,5-a]pyrimidine-3-carboxamide]
  Cisplatin Sensitization Assay: +++ (Compounds with a Cisplatin sensitization value of <0.02 μM are marked with “+++.”)

## CN1C2CCC1CN(C(=O)C1CCN(c3c(F)cncc3NC(=O)c3c(N)nn4cc(F)cnc34)CC1)C2 [I-G-52, 2-amino-6-fluoro-N-(5-fluoro-4-(4-(8-methyl-3,8-diazabicyclo[3.2.1]octane-3-carbonyl)piperidin-1-yl)pyridin-3-yl)pyrazolo[1,5-a]pyrimidine-3-carboxamide]
  Cisplatin Sensitization Assay: +++ (Compounds with a Cisplatin sensitization value of <0.02 μM are marked with “+++.”)

## CN1CC2CC1CN2C(=O)C1CCN(c2c(F)cncc2NC(=O)c2c(N)nn3cc(F)cnc23)CC1 (stereo not drawn) [I-G-53, 2-amino-6-fluoro-N-(5-fluoro-4-(4-(5-methyl-2,5-diazabicyclo[2.2.1]heptane-2-carbonyl)piperidin-1-yl)pyridin-3-yl)pyrazolo[1,5-a]pyrimidine-3-carboxamide]
  Cisplatin Sensitization Assay: +++ (Compounds with a Cisplatin sensitization value of <0.02 μM are marked with “+++.”)

## CN1CCN(C(=O)C2(C)CCN(c3c(F)cncc3NC(=O)c3c(N)nn4cc(F)cnc34)CC2)CC1 [I-G-54, 2-amino-6-fluoro-N-(5-fluoro-4-(4-methyl-4-(4-methylpiperazine-1-carbonyl)piperidin-1-yl)pyridin-3-yl)pyrazolo[1,5-a]pyrimidine-3-carboxamide]
  Cisplatin Sensitization Assay: +++ (Compounds with a Cisplatin sensitization value of <0.02 μM are marked with “+++.”)

## Cc1cncc(NC(=O)c2c(N)nn3cc(F)cnc23)c1N1CCC(C(=O)N2CCN(C)CC2)CC1 [I-G-55, 2-amino-6-fluoro-N-(5-methyl-4-(4-(4-methylpiperazine-1-carbonyl)piperidin-1-yl)pyridin-3-yl)pyrazolo[1,5-a]pyrimidine-3-carboxamide]
  Cisplatin Sensitization Assay: +++ (Compounds with a Cisplatin sensitization value of <0.02 μM are marked with “+++.”)
